Test results reported in US20090018163A1, “Substituted Heterocyclic Ethers and Their Use in CNS Disorders” (Bristol-Myers Squibb Company, priority 2007, published 2009).
Read-outs that look alike come from different tables or passages of the source.

Experiments:
[1] = target: T1, NK-1 (Homo sapiens, UniProt P25103); experiment: NK1 radioligand binding assay; conditions: U373 membrane preparation, [125I]Substance P
T1 construct: 30 ul/well of a 2×U373 membrane preparation; endogenous in cells; host or cells: U373 cells (crude membrane preparation)
Description: (§1) NK-1 Binding assay. Crude membrane suspensions were prepared for the NK1 and SERT radioligand binding assays from U373 cells or recombinant HEK-293 cells expressing hSERT, respectively. Cells were harvested from T-175 flasks as follows. The medium is removed from the flasks and the cells rinsed with HBSS without Ca and without Mg. The cells are then incubated for 5-10 minutes in 10 mM Tris-Cl, pH 7.5, 5 mM EDTA before the cells are lifted with a combination of pipetting and scraping, as needed. To prepare membranes, the cell suspension is collected into centrifuge bottles and homogenized for 30 seconds with a Polytron homogenizer. The suspension is centrifuged for 30 min @ 32,000×g, 4° C., then the supernatant is decanted and the pellet resuspended and homogenized in 50 mM Tris-Cl, pH 7.5, 1 mM EDTA for 10 seconds. The suspension is then centrifuged again for 30 min @ 32,000×g, 4° C. The supernatant is decanted and the pellet resuspended in 50 mM Tris-Cl, pH 7.5, 1 mM EDTA and briefly homogenized. A Bradford assay (Bio-rad) is performed and the membrane preparation diluted to 2 mg/ml with 50 mM Tris-Cl, pH 7.5, 1 mM EDTA. Aliquots are prepared, and then frozen and stored at −80° C.
NK1 radioligand binding assay. Compounds are dissolved in 100% DMSO at a concentration 100× the desired highest assay concentration, serially diluted 1:3 in 100% DMSO, and 0.6 ul/well of each solution is dispensed to a Nunc polypropylene, round bottom, 384 well plate. 100% inhibition is defined with 0.6 ul/well of 1 mM L-733,060 (Sigma L-137) dissolved in DMSO. 30 ul/well of a 2×U373 membrane preparation (267 ug/ml in 100 mM Tris-Cl, pH 7.5, 6 mM MgCl2, 0.2% (v/v) Sigma mammalian protease inhibitor cocktail (Sigma P-8340), and 4 ug/ml chymostatin, Sigma C-7268) and 30 ul/well of a 2× radioligand solution (400 pM [^125I]Substance P (Perkin Elmer NEX-190) in 1% (w/v) BSA (Sigma A-2153), 0.1 mg/ml bacitracin, Sigma B-0125) are added to the well and the reaction incubated for 1 hour at room temperature. The contents of the assay plate are then transferred to a Millipore MultiscreenHTS GF/B filter plate which has been pretreated with 0.5% PEI for at least one hour. The plate is vacuum filtered and washed with 7 washes of 100 ul/well of 20 mM Tris-Cl, pH 7.5, 0.5% (w/v) BSA chilled to 4° C. The filtration and washing is completed in less than 90 s. The plates are air-dried overnight, 12 ul/well of MicroScint scintillation fluid added, and the plates counted in a Trilux.
(§2) Data analysis. The raw data are normalized to percent inhibition using control wells defining 0% (DMSO only) and 100% (selective inhibitor) inhibition which are run on each plate. Each plate is run in triplicate, and the concentration response curve thus generated is fit using the four-parameter dose response equation, Y=Bottom+(Top-Bottom)/(1+10̂((LogIC50−X)*HillSlope)) in order to determine the IC50 value for each compound. The radioligand concentration chosen for each assay corresponds to the Kd concentration determined through saturation binding analysis for each assay.

[2] = target: T2, hSERT (Homo sapiens, UniProt P31645); experiment: SERT radioligand binding assay
T2 construct: expressed in transfected cells; host or cells: HEK-293 cells (crude membrane preparation)
Description: as §1
SERT radioligand binding assay. Compounds are dissolved in 100% DMSO at a concentration 100× the desired highest assay concentration, serially diluted 1:3 in 100% DMSO, and 0.4 ul/well of each solution is dispensed to a Nunc polypropylene, round bottom, 384 well plate. 100% inhibition is defined with 0.4 ul/well of 1 mM fluoxetine (Sigma F-132) dissolved in DMSO. 20 ul/well of a 2×HEK-hSERT membrane preparation (15 ug/ml in 50 mM Tris-Cl, pH 7.5, 120 mM NaCl, 5 mM KCl) and 20 ul/well of a 2× radioligand solution (520 pM [^125I]RTI-55 (Perkin-Elmer NEX-272) in 50 mM Tris-Cl, pH 7.5, 120 mM NaCl, 5 mM KCl) are added to each well and the reaction incubated for 1 hour at room temperature. The contents of the assay plate are then transferred to a Millipore MultiscreenHTS GF/B filter plate which has been pretreated with 0.5% PEI for at least one hour. The plate is vacuum filtered and washed with 7 washes of 100 ul/well of 50 mM Tris-Cl, pH 7.5, 120 mM NaCl, 5 mM KCl chilled to 4° C. The filtration and washing is completed in less than 90 s. The plates are air-dried overnight, 12 ul/well of MicroScint scintillation fluid added, and the plates counted in a Trilux.
as §2

[3] = HEK-hSERT membrane preparation, [125I]RTI-55, Table 1, read-out: SERT IC50
[4] = HEK-hSERT membrane preparation, [125I]RTI-55, Table 1a, single enantiomers, read-out: SERT IC50

T1 sequence (P25103 whole entry): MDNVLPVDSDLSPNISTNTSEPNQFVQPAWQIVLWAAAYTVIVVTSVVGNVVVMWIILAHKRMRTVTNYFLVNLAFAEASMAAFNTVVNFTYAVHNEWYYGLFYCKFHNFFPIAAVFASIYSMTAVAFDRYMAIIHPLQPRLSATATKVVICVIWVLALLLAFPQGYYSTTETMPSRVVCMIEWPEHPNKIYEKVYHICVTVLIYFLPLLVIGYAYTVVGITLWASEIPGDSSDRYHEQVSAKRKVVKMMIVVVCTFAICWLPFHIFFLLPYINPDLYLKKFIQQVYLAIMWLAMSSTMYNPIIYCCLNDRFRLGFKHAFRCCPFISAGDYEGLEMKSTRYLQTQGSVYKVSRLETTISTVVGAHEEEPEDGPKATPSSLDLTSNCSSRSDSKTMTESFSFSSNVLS
T2 sequence (P31645 whole entry): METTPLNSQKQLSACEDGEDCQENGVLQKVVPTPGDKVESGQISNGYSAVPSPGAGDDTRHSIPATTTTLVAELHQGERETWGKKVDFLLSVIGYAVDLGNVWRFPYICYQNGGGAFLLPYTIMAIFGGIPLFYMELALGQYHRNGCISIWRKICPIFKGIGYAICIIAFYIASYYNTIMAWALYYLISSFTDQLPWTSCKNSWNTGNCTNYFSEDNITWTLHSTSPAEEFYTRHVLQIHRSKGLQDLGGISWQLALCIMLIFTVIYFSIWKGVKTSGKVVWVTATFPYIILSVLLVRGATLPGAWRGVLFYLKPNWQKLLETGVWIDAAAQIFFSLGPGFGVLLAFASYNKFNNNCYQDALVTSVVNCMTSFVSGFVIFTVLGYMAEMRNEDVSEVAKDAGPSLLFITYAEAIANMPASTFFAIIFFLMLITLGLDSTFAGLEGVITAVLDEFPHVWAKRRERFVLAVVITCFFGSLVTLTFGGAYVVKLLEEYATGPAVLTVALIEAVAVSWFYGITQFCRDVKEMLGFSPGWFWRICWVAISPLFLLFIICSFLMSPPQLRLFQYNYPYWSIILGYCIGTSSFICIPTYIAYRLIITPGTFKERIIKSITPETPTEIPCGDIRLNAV

| Compound | IC50 ([1]; Table 1) [nM] | IC50 [2, 3] [nM] | also measured |
| --- | --- | --- | --- |
| Cc1cc(C(C)OCC2(c3ccc(F)cc3)CCN(C)CC2)c2nc(F)ccc2c1 (centres unmarked) [Example 52] | 0.01 to 100 | 0.01 to 100 | – |
| CC(OCC1(c2ccccc2)CCN(C)CC1)c1cc(C(F)(F)F)cc2cccnc12 (single isomer, unassigned) [Example 72] | – | – | IC50 ([1]; Table 1a, single enantiomers): > 300 nM; IC50 [2]: 0.01 to 100 nM |
| CC(OCC1(c2ccc(F)cc2)CCNCC1)c1cc(C(F)(F)F)cc2cccnc12 (single isomer, unassigned) [Example 68] | – | – | IC50 ([1]; Table 1a, single enantiomers): 0.01 to 100 nM; IC50 [2, 4]: 0.01 to 100 nM |
| Cc1cc(COCC2(c3ccc(F)cc3)CCN(C)CC2)c2ncccc2c1 [Example 30] | 0.01 to 100 | 0.01 to 100 | – |
| CC(OCC1(c2ccc(F)cc2)CCN(C)CC1)c1cc(C(F)(F)F)cc2cccnc12 (single isomer, unassigned) [Example 69] | – | – | IC50 ([1]; Table 1a, single enantiomers): > 300 nM; IC50 ([2]; read-out: SERT IC50, HEK-hSERT membrane preparation, [125I]RTI-55, Table 1a, single enantiomers): 0.01 to 100 nM |
| Cc1ccc2nc(COCC3(c4ccccc4)CCNCC3)cc(C)c2c1 [Example 19, 4,6-dimethyl-2-(((4-phenylpiperidin-4-yl)methoxy)methyl)quinoline] | > 300 | 0.01 to 100 | – |
| Cc1ccc2cc(COCC3(c4ccccc4)CCN(C)CC3)ccc2n1 [Example 10] | > 300 | 0.01 to 100 | – |
| Cc1ccc2cc(COCC3(c4ccccc4)CCNCC3)ccc2n1 [Example 9] | > 300 | 0.01 to 100 | – |
| Brc1cc(COCC2(c3ccccc3)CCNCC2)c2ncccc2c1 [Example 22] | 0.01 to 100 | 0.01 to 100 | – |
| CN(C)c1cc(COCC2(c3ccccc3)CCNCC2)nc2ccccc12 [Example 16, N,N-dimethyl-2-(((4-phenylpiperidin-4-yl)methoxy)methyl)quinolin-4-amine] | > 300 | 0.01 to 100 | – |
| Cc1cc(COCC2(c3ccccc3)CCNCC2)c2ccccc2n1 [Example 1, 2-methyl-4-(((4-phenylpiperidine-4-yl)methoxy)methyl)quinoline] | > 300 | 0.01 to 100 | – |
| CNc1cc(COCC2(c3ccccc3)CCNCC2)nc2cccc(C(F)(F)F)c12 [Example 45, N-methyl-2-(((4-phenylpiperidin-4-yl)methoxy)methyl)-5-(trifluoromethyl)quinolin-4-amine] | > 300 | 0.01 to 100 | – |
| CC(OCC1(c2ccccc2)CCNCC1)c1cc(C(F)(F)F)cc2cccnc12 (single isomer, unassigned) [Example 71] | – | – | IC50 ([1]; Table 1a, single enantiomers): 0.01 to 100 nM; IC50 [2, 4]: 0.01 to 100 nM |
| Cc1cc(C(C)OCC2(c3ccc(F)cc3)CCN(C)CC2)c2nc(Cl)ccc2c1 (centres unmarked) [Example 49] | 0.01 to 100 | 0.01 to 100 | – |
| Cc1cc(COCC2(c3ccc(F)cc3F)CCNCC2)c2ncccc2c1 [Example 27] | 0.01 to 100 | 0.01 to 100 | – |
| Cc1cc(COCC2(c3ccc(F)cc3F)CCN(C)CC2)c2ncccc2c1 [Example 28] | 100 to 300 | – | IC50 [2]: 0.01 to 100 nM |
| Cc1cccc2nc(COCC3(c4ccccc4)CCNCC3)cc(C)c12 [Example 21] | > 300 | 0.01 to 100 | – |
| FC(F)(F)c1ccnc2ccc(COCC3(c4ccccc4)CCNCC3)cc12 [Example 47, 6-(((4-phenylpiperidin-4-yl)methoxy)methyl)-4-(trifluoromethyl)quinoline] | > 300 | 0.01 to 100 | – |
| FC(F)(F)c1ccc2ccc(COCC3(c4ccccc4)CCNCC3)nc2c1 [Example 46, 2-(((4-phenylpiperidin-4-yl)methoxy)methyl)-7-(trifluoromethyl)quinoline] | > 300 | 0.01 to 100 | – |

| Compound | IC50 ([1]; Table 1) [nM] | IC50 [2, 3] [nM] | also measured |
| --- | --- | --- | --- |
| FC(F)(F)c1cccc2nc(COCC3(c4ccccc4)CCNCC3)ccc12 [Example 48, 2-(((4-phenylpiperidin-4-yl)methoxy)methyl)-5-(trifluoromethyl)quinoline] | > 300 | 0.01 to 100 | – |
| Cc1cc(C(C)OCC2(c3ccccc3)CCNCC2)c2ncccc2c1 (centres unmarked) [Example 41] | 0.01 to 100 | 0.01 to 100 | – |
| CN1CCC(COCc2ccc3ccccc3n2)(c2ccccc2)CC1 [Example 6] | > 300 | 0.01 to 100 | – |
| Cc1cc(C(C)OCC2(c3ccccc3)CCN(C)CC2)c2ncccc2c1 (centres unmarked) [Example 42] | 0.01 to 100 | 0.01 to 100 | – |
| Cc1ccc2c(C)cc(COCC3(c4ccccc4)CCNCC3)nc2c1 [Example 20] | > 300 | 0.01 to 100 | – |
| COc1ccc2nc(COCC3(c4ccccc4)CCNCC3)ccc2c1 [Example 11] | > 300 | 0.01 to 100 | – |
| CN1CCC(COCc2cc(C#N)cc3cccnc23)(c2ccc(F)cc2)CC1 [Example 44, 8-(((4-(4-fluorophenyl)-1-methylpiperidin-4-yl)methoxy)methyl)quinoline-6-carbonitrile] | > 300 | – | IC50 [2]: 0.01 to 100 nM |
| N#Cc1cc(COCC2(c3ccccc3)CCNCC2)nc2ccccc12 [Example 14, 2-(((4-phenylpiperidin-4-yl)methoxy)methyl)quinoline-4-carbonitrile] | > 300 | 0.01 to 100 | – |
| Cc1cc(C(C)OCC2(c3ccc(F)cc3F)CCN(C)CC2)c2ncccc2c1 (centres unmarked) [Example 43] | 0.01 to 100 | 0.01 to 100 | – |
| Cc1cc(C(C)OCC2(c3ccc(F)cc3)CCN(C)CC2)c2[nH]c(=O)ccc2c1 (centres unmarked) [Example 53] | 0.01 to 100 | 0.01 to 100 | – |
| CN1CCC(COCc2cc(-c3ccc(C#N)cc3)cc3cccnc23)(c2ccccc2)CC1 [Example 25] | > 300 | – | IC50 [2]: 0.01 to 100 nM |
| CN(C)c1cc(COCC2(c3ccccc3)CCNCC2)nc2cc(C(F)(F)F)ccc12 [Example 18, N,N-dimethyl-2-(((4-phenylpiperidin-4-yl)methoxy)methyl)-7-(trifluoromethyl)quinolin-4-amine] | > 300 | 0.01 to 100 | – |
| CC(OCC1(c2ccccc2)CCN(C)CC1)c1cc(C(F)(F)F)cc2cccnc12 (single isomer, unassigned) [Example 74] | – | – | IC50 ([1]; Table 1a, single enantiomers): 0.01 to 100 nM; IC50 [2, 4]: 0.01 to 100 nM |
| CC(OCC1(c2ccc(F)cc2)CCN(C)CC1)c1cc(C(F)(F)F)cc2cccnc12 (centres unmarked) [Example 34] | 0.01 to 100 | 0.01 to 100 | – |
| Cc1cc(COCC2(c3ccccc3)CCN(C)CC2)nc2ccccc12 [Example 4] | 100 to 300 | – | IC50 [2]: 0.01 to 100 nM |
| CN1CCC(COCc2cc(Br)cc3cccnc23)(c2ccccc2)CC1 [Example 23] | 0.01 to 100 | 0.01 to 100 | – |
| Cc1cc(C(C)OCC2(c3ccc(F)cc3)CCN(C)CC2)c2ncccc2c1 (single isomer, unassigned) [Example 76] | – | – | IC50 ([1]; Table 1a, single enantiomers): 0.01 to 100 nM; IC50 [2, 4]: 0.01 to 100 nM |
| Cc1cc(COCC2(c3ccccc3)CCN(C)CC2)c2ncccc2c1 [Example 26] | 0.01 to 100 | 0.01 to 100 | – |
